Test results taken from patent US20260035367A1 (Celgene Corporation, priority 2021, published 2026).
Where two headings read alike, the source gives them in different places.

Legend:
[1] = target: T1, Recombinant human PKC-theta (His-tagged 362-706) (Homo sapiens, UniProt Q04759); experiment: PKC-theta inhibition assay (HTRF KinEASE kit); type: biochemical; conditions: ATP 6.5 μM, STK substrate 525 nM
T1 construct: Recombinant human PKC-theta (His-tagged 362-706); His
Description: PKC-theta and PKC-delta biochemical activities were measured using the PKC-theta HTRF KinEASEkit kit, according to manufacturer's instructions (Cisbio, catalogue number 61ST1PEJ). Briefly, the kinase buffer component of the kit was supplemented with 10 mM MgCl2, 1 mM DTT and 0.1% Tween 20. […] The streptavidin_XL665 and STK antibody-cryptate detection reagents were mixed according to the manufacturer's instructions. Test compounds were diluted in DMSO in a series of 10 semi-log step doses; 10 nL of each compound dose were dispensed in 384 well plates. […] The reaction was started by addition of the substrate and ATP and incubated at 25° C. for 30 minutes or 20 minutes for the PKC-theta and PKC-delta assays, respectively. The detection reagents were added, and the plate was incubated in the dark for 2 hours. […] The ratio of acceptor and donor emission signals was calculated for each well. Percent inhibition values were calculated from the HTRF ratios at different doses and fitted to a 4-parameter logistic curve to determine IC50 values (see Table 2).

[2] = target: T2, Recombinant human PKC-delta (His-tagged 345-676) (Homo sapiens, UniProt Q05655); experiment: PKC-delta inhibition assay (HTRF KinEASE kit); type: biochemical; conditions: ratio, PKC-theta vs PKC-delta HTRF; for PKC-theta/PKC-delta selectivity (binned): binned A to G
T2 construct: PKC-delta (His-tagged 345-676); His
T2 sequence (Q05655 345-676): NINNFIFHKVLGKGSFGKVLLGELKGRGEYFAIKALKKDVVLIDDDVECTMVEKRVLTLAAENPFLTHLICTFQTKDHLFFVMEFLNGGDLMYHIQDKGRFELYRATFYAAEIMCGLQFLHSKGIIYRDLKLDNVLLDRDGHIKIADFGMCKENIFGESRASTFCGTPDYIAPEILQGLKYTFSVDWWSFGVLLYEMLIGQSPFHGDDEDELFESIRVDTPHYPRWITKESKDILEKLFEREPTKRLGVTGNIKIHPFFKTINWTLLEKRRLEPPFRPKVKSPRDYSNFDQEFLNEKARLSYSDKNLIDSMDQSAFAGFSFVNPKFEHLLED

[3] = tested on: IL-2 secretion by human effector memory T cells (TEM); experiment: Effector memory T cells IL-2 release assay (CD3/CD28 stimulation, HTRF IL-2 detection); type: cell-based; conditions: 24 h; for IC50: Homo sapiens, T-cell
Description: Test compound-mediated inhibition of NFκB signalling in T cells was assessed by quantification of the IL-2 secretion by human effector memory T cells (TEM) upon treatment and stimulation. Human TEM cells were isolated from buffy coats of healthy donors obtained from the French blood bank.
Finally, 10 doses of test compound, originally prepared in DMSO by serial semi-log step dilution, were also added to cells in triplicate wells. Final DMSO concentration in wells was 0.1% in a total volume of 100 μL complete medium. Plates were incubated for 24 h at 37° C. in 5% CO2 atmosphere. After incubation, cell suspensions were centrifuged at 400×g and culture supernatants were recovered and stored at −80° C. […] IL-2 levels were determined in cell supernatants using an HTRF human IL-2 detection kit (Cisbio, cat #62HIL02PEH).

[4] = binned A to H, read-out: PKC-theta HTRF pIC50 (binned) (converted)
[5] = read-out: PKC-theta HTRF pIC50 (converted)
[6] = binned A to G, read-out: PKC-theta IL2 pIC50 (binned) (converted)
[7] = read-out: PKC-theta IL2 pIC50 (converted)

T1 sequence (Q04759 362-706): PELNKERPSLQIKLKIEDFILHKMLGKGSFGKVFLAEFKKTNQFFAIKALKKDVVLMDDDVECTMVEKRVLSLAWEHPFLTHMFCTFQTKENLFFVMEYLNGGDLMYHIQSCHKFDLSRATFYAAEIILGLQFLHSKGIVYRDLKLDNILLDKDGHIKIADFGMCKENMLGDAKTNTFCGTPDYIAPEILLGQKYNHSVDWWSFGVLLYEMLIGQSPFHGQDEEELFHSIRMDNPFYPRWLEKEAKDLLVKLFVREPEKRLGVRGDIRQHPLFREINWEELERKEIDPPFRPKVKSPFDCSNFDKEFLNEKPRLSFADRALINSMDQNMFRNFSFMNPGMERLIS

Row | PKC-theta IL2 pIC50 [3] | SMILES | IC50 [1, 4] [nM] | IC50 [1, 5] [nM] | PKC-theta/PKC-delta selectivity [2] | PKC-theta/PKC-delta selectivity (binned) [2] | IC50 [3, 6] [nM] | IC50 [3, 7] [nM] | PKC-theta IL2 pIC50 (binned) ([3]; binned A to G)
1 |  | C[C@@H]1CN(c2cc(C(F)(F)F)cc(-c3ccnc4c3[C@](C)(O)C(=O)N4)n2)[C@H](C)CN1 (single isomer, unassigned) [Example 119] | 3.16 to 10 | 3.98 | 12 | D (a ratio of between 10 and 20) | 100 to 316 | 200 | 
2 |  | C[C@@]1(O)C(=O)Nc2nccc(-c3cc(Cl)cc(N4CCNC(CC(F)(F)F)C4)n3)c21 (single isomer, unassigned) [Example 122] | 3.16 to 10 | 3.98 | 16 | D (a ratio of between 10 and 20) | 100 to 316 | 251 | 
3 |  | C[C@@]1(O)C(=O)Nc2nccc(-c3cc(C(F)(F)F)cc(N4CCNC(C(F)F)C4)n3)c21 (single isomer, unassigned) [Example 123] | 10 to 31.6 | 20 | 25 | C (a ratio of between 20 and 30) | > 1000 | 1580 | 
4 |  | CC[C@H]1CN(c2ccc(Cl)c(-c3ccnc4c3[C@](C)(O)C(=O)N4)n2)CCN1 (single isomer, unassigned) [Example 128] | 10 to 31.6 | 25.1 | 5 | F (a ratio of between 1 and 5) | 100 to 316 | 316 | 
5 |  | CC[C@@H]1CNCCN1c1cc(C(F)(F)F)cc(-c2ccnc3c2[C@](C)(O)C(=O)N3)n1 (single isomer, unassigned) [Example 129] | 0.316 to 1 | 0.501 | 3 | F (a ratio of between 1 and 5) | 3.16 to 10 | 3.98 | 
6 |  | CC1(C)CN(c2cc(Cl)cc(-c3ccnc4c3[C@](C)(O)C(=O)N4)n2)CCN1 (single isomer, unassigned) [Example 133] | 1 to 3.16 | 2.51 | 10 | D (a ratio of between 10 and 20) | 31.6 to 100 | 50.1 | 
7 |  | CC1(C)CN(c2cc(C(F)(F)F)cc(-c3ccnc4c3[C@](C)(O)C(=O)N4)n2)CCN1 (single isomer, unassigned) [Example 134] | 3.16 to 10 | 7.94 | 10 | D (a ratio of between 10 and 20) | 100 to 316 | 100 | 
8 |  | C[C@@]1(O)C(=O)Nc2nccc(-c3cc(C(F)(F)F)cc(N4C[C@H]5CC[C@@H](C4)N5)n3)c21 (single isomer, unassigned) [Example 136] | 10 to 31.6 | 25.1 | 11 | D (a ratio of between 10 and 20) | 316 to 1000 | 501 | 
9 |  | C[C@@]1(O)C(=O)Nc2nccc(-c3cc(C(F)(F)F)cc(N4CC5CCC4CN5)n3)c21 (single isomer, unassigned) [Example 138] | 10 to 31.6 | 15.8 | 16 | D (a ratio of between 10 and 20) | 316 to 1000 | 631 | 
10 |  | CC[C@@H]1CNCCN1c1cc(Cl)cc(-c2ccnc3c2[C@](C)(O)C(=O)N3)n1 (single isomer, unassigned) [Example 139] | 0.316 to 1 | 0.794 | 1 | F (a ratio of between 1 and 5) | 1 to 3.16 | 2 | 
11 |  | C[C@@]1(O)C(=O)Nc2nccc(-c3cc(C(F)(F)F)cc(N4CC5CC(C4)N5)n3)c21 (single isomer, unassigned) [Example 149] | 10 to 31.6 | 25.1 | 15 | D (a ratio of between 10 and 20) | 316 to 1000 | 398 | 
12 |  | CC[C@H]1CN(c2cc(Cl)cc(-c3ccnc4c3[C@@](C)(OC)C(=O)N4)n2)CCN1 (single isomer, unassigned) [Example 151] | 10 to 31.6 | 12.6 | 15 | D (a ratio of between 10 and 20) |  | 126 | E (a measured pIC50 of between 6.5 and 7.0)
13 | 7.1 | CC[C@H]1CN(c2cc(Cl)cc(-c3ccnc4c3[C@@](C)(OC)C(=O)N4)n2)CCN1 (single isomer, unassigned) [Example 152] | 3.16 to 10 | 6.31 | 11 | D (a ratio of between 10 and 20) |  |  | D (a measured pIC50 of between 7.0 and 7.5)
14 |  | CC[C@]1(C)C(=O)Nc2nccc(-c3cc(C(F)(F)F)cc(N4CCN[C@@H](C)C4)n3)c21 (single isomer, unassigned) [Example 153] | 1 to 3.16 | 3.16 | 13 | D (a ratio of between 10 and 20) | 10 to 31.6 | 31.6 | 
15 |  | CC[C@@]1(C)C(=O)Nc2nccc(-c3cc(C(F)(F)F)cc(N4CCN[C@@H](C)C4)n3)c21 (single isomer, unassigned) [Example 154] | 3.16 to 10 | 7.94 | 19 | D (a ratio of between 10 and 20) | 100 to 316 | 126 | 
16 |  | CO[C@]1(C)C(=O)Nc2nccc(-c3cc(C(F)(F)F)cc(N4CCNC[C@H]4C)n3)c21 (single isomer, unassigned) [Example 158] | 3.16 to 10 | 6.31 | 10 | E (a ratio of between 5 and 10) | 100 to 316 | 200 | 
17 |  | CC[C@@]1(O)C(=O)Nc2nccc(-c3cc(Cl)cc(N4CCN[C@@H](C)C4)n3)c21 (single isomer, unassigned) [Example 162] | 100 to 316 | 316 | 33 | B (a ratio of between 30 and 50) | 316 to 1000 | 794 | 
18 |  | CC[C@]1(O)C(=O)Nc2nccc(-c3cc(Cl)cc(N4CCN[C@@H](C)C4)n3)c21 (single isomer, unassigned) [Example 163] | 3.16 to 10 | 3.98 | 10 | D (a ratio of between 10 and 20) | 10 to 31.6 | 31.6 | 
19 |  | CC[C@@]1(C)C(=O)Nc2nccc(-c3cc(Cl)cc(N4CCNC[C@H]4C)n3)c21 (single isomer, unassigned) [Example 164] | 1 to 3.16 | 2 | 5 | F (a ratio of between 1 and 5) | 10 to 31.6 | 12.6 | 
20 |  | CC[C@]1(C)C(=O)Nc2nccc(-c3cc(Cl)cc(N4CCNC[C@H]4C)n3)c21 (single isomer, unassigned) [Example 165] | 3.16 to 10 | 6.31 | 12 | D (a ratio of between 10 and 20) | 31.6 to 100 | 63.1 | 
